Experimental data: patent publication US9066947B2, “Indolyl-substituted pyrazino[1,2-b]isoquinolines for cancer treatment” (Everest Biosciences, Inc., priority 2009, dated 2015)
Each block holds one compound with its values, some of them ahead of it.

Columns and labels:
[1] = system: PC-3 prostate cancer cells; test: Annexin V-apoptosis assay; type: cell-based, human; conditions: 48 hours; for apoptotic cell number versus control and Etoposide: 50 uM and 100 uM
Description: (§1) Hormone-independent and metastatic PC-3 prostate cancer cells were purchased from the American Type Culture Collection (Manassas, Va., USA) and cultured in RPMI-1640 supplemented with 10% fetal bovine serum. Etoposide was purchased from Sigma, Avastin from Roche.
Cells were treated with 50 uM and 100 uM compounds and Etoposide for 48 hours, harvested, washed with PBS and resuspended in binding buffer (0.01 M HEPES pH 7.4, 0.14 M NaCl, […] CaCl2) (BD Bioscience, san Jose, Calif., USA), stained with […] annexin V and 7-AAD (BD Bioscience). The cells were incubated for 15 min at room temperature in the dark, and the rate of apoptosis was measured by flow cytometry (Calibur, BD) and analyzed using FCS Express Professional software (De NoVo software, CA, USA).

[2] = system: PC-3 prostate cancer cells; test: Cell cycle analysis; type: cell-based, human; conditions: for G2/M phase blockage: 50 uM and 100 uM, analogue 3 statement at 100 uM
Description: as §1
Cells were harvested after the treatment, then fixed in ice-cold 70% EtOH. Cells then were washed with PBS and incubated in DNA staining buffer, containing 1 mg/ml sodium citrate (Sigma), 0.1 mg/ml propidium iodide (Sigma), 3 ul/ml TritonX-100, 0.02 mg/ml RNaseA (Sigma) for 30 min at 4° C. The cell cycle profiles were measured in a FACS Calibur cytofluorometer (BD) and analyzed using FCS Express Professional (De NoVo software, CA, USA) and Multicycle (Phoenix Flow Systems, Inc., CA, USA) softwares.

[3] = system: PC-3 prostate cancer cells; test: Cell proliferation assay (trypan blue viable cell count) and IC50 determination; type: cell-based, human; conditions: PC-3 cells; for IC50: Homo sapiens, viable cells after 48 hours, read-out: IC50 for cell growth inhibition; for concentration from which statistically significant cell growth inhibition started: 48 hours
Description: All new synthesized compounds and Etoposide were first dissolved in 100% DMSO at initial concentration of 100 mM, and then diluted at final concentration of 200 uM in culture medium. Commercial form of Avastin (25 mg/ml) was diluted to appropriate concentrations in culture medium.
as §1
For cell counting a total of 6×10^4 cells at a density of 0.3×10^6/ml were seeded in 96-well plate. The cells were treated with compounds, Etoposide or Avastin as positive controls at 1 uM, 5 uM, 10 uM, 20 uM, 50 uM, 100 uM for 48 hours. For Avastin 5 uM, 20 uM and 50 uM concentrations were used. The cells were labeled with trypan blue and the viable cells were quantified.

[4] = system: PC-3 tumors; test: PC-3 prostate cancer xenograft mouse model of tumor growth and metastasis; type: in vivo, athymic NMRI nude mice; conditions: tumors about 250 mm3, IV once every other day for 14 days; Etoposide 20 mg/kg, Substance X 40 mg/kg (FIG. 4)
Text: Athymic NMRI nude mice between 6-8 weeks old (Taconic; Bomholt, Denmark) were used. Prostate cancer xenograft mouse model was created by implanting hormone-independent PC3 tumor cells subcutaneously into athymic nude mice as previously described (Wegiel B, Bjartell A, Tuomela J, et al.: Multiple cellular mechanisms related to cyclin Al in prostate cancer invasion and metastasis. Journal of the National Cancer Institute 100: 10221036, 2008).
PC-3 cells were purchased from American Type Culture Collection (Manassas, V A) and cultured in RPMI-1640 supplemented with 10% Fetal Bovine Serum. PC-3 cells at 1×10^6/per mouse were used. The mice were divided into three groups (6 mice per group). The first group allowed tumors to grow between 170-400 mm^3 in size before starting the treatment. The second group allowed tumors to grow between 550-650 mm^3 in size before starting the treatment. The third group allowed tumors to grow between 700-800 mm^3 in size before starting the treatment. The tumor diameters were measured twice weekly using calipers. The tumor volumes were calculated using an equation of a*(b2/2) where a and b represent the length and width of the tumor, respectively.
The treatment of the compound of Example 1 (also referred to herein as “Substance X”) or PBS containing 5% DMSO (vehicle) as Control was started when tumors reached the desired size as described above. In the first experimental setting, Substance X was administered intravenously once every other day. In the second experimental setting, Substance X was administrated orally once every other day. Tumor growth was assessed periodically as described in Results. The mice were sacrificed after treatment by euthanization via isofluorene inhalation. Lymph node, liver, lung, spleen and femurs were removed from each mouse. Half of the tumor tissues were used for histology and immunohistochemical analysis. For histology analysis, tissues were fixed in 4% paraformaldehyde and embedded in paraffin. The sections were stained with hematoxylineosin (H&E) or imunohistochemical stained with antibodies and analyzed under an optical microscope. The other half of the tissues were used for protein analysis and thus were snapfrozen in liquid nitrogen. The body weights of the mice on the first and last day of the treatment were collected and compared. Tumor invasion and metastasis were examined in various tissues from the sacrificed mice.
For a comparison study, mice with tumors at 190-250 mm^3 in size were treated with the cytotoxic drug Etoposide (Sigma) at a dose of 20 mg/kg via IV injection once every other day. The tumor size was measured as described in the Results. Three mice were treated with Etoposide or the vehicle as Control. The mice were sacrificed and the tissues were collected as described above.

SMILES: COc1cc([C@@H]2c3cc4c(cc3[C@@H](O[C@@H]3O[C@@H]5CO[C@@H](C)O[C@H]5[C@H](O)[C@H]3O)[C@H]3COC(=O)[C@H]23)OCO4)cc(OC)c1O [Etoposide, reference compound]
Early apoptosis, % ([1]; 50 uM): 9.22% | Late apoptosis/necrosis, % ([1]; 50 uM): 6.73% | Total, % (apoptosis) ([1]; 50 uM): 15.95% | Early apoptosis, % ([1]; 100 uM): 9.35% | Late apoptosis/necrosis, % ([1]; 100 uM): 4.98% | Total, % (apoptosis) ([1]; 100 uM): 14.33% | G0/G1, % ([2]; 50 uM): 15.91% | S + G2 + M, % ([2]; 50 uM): 84.09% | G2/M phase blockage [2]: G2/M phase blockage | G0/G1, % ([2]; 100 uM): 21.39% | S + G2 + M, % ([2]; 100 uM): 78.61% | tumor growth, comparison of Etoposide and Substance X [4]: grew slowly

SMILES: CN1CC(=O)N2[C@H](c3cn(Cc4ccccc4)c4ccccc34)c3cc4c(cc3C[C@H]2C1=O)OCO4 [Analogue 5, (2S,8S)-2-(1-benzyl-1H-indol-3-yl)-6-methyl-13,15-dioxa-3,6-diazatetracyclo-[8.7.0.0^3,8.0^12,16]heptadeca-1(10),11,16-triene-4,7-dione]
effect on PC-3 cell number ([3]; 48 hours (FIG. 12)): resulted in cell reduction

SMILES: CN1CC(=O)N2[C@H](c3c[nH]c4ccc(Cl)cc34)c3cc4c(cc3C[C@H]2C1=O)OCO4 [Analogue 1, (2S,8S)-2-(5-chloro-1H-indol-3-yl)-6-methyl-13,15-dioxa-3,6-diazatetracyclo-[8.7.0.0^3,8.0^12,16]heptadeca-1(10),11,16-triene-4,7-dione]
apoptotic cell number versus control and Etoposide [1]: increasing in both early and late apoptotic cell number | Early apoptosis, % ([1]; 50 uM): 10.98% | Late apoptosis/necrosis, % ([1]; 50 uM): 4.23% | Total, % (apoptosis) ([1]; 50 uM): 15.21% | Early apoptosis, % ([1]; 100 uM): 16.83% | Late apoptosis/necrosis, % ([1]; 100 uM): 8.29% | Total, % (apoptosis) ([1]; 100 uM): 25.12% | G0/G1, % ([2]; 50 uM): 63.26% | S + G2 + M, % ([2]; 50 uM): 36.74% | G2/M phase blockage [2]: not | G0/G1, % ([2]; 100 uM): 60.44% | S + G2 + M, % ([2]; 100 uM): 39.56% | IC50 [3]: 36 µM

SMILES: COc1ccc2[nH]cc([C@@H]3c4cc5c(cc4C[C@H]4C(=O)N(C)CC(=O)N34)OCO5)c2c1 [Analogue 2, (2S,8S)-2-(5-methoxy-1H-indol-3-yl)-6-methyl-13,15-dioxa-3,6-diazatetracyclo[8.7.0.0^3,8.0^12,16]heptadeca-1(10),11,16-triene-4,7-dione]
IC50 [3]: 60 µM | concentration from which statistically significant cell growth inhibition started [3]: 5 µM

Further lines, with some results ahead:

IC50 [3]: 32 µM
SMILES: CN1CC(=O)N2[C@H](c3c[nH]c4c3ccc3ccccc34)c3cc4c(cc3C[C@H]2C1=O)OCO4 [Analogue 3, (2S,8S)-6-methyl-2-{1H-naphtho[1,2-b]pyrrol-3-yl}-13,15-dioxa-3,6-diazatetracyclo[8.7.0.0^3,8.0^12,16]heptadeca-1(10),11,16-triene-4,7-dione]
apoptotic cell number versus control and Etoposide [1]: increasing in both early and late apoptotic cell number | Early apoptosis, % ([1]; 50 uM): 15.21% | Late apoptosis/necrosis, % ([1]; 50 uM): 6.55% | Total, % (apoptosis) ([1]; 50 uM): 21.76% | Early apoptosis, % ([1]; 100 uM): 17.51% | Late apoptosis/necrosis, % ([1]; 100 uM): 5.52% | Total, % (apoptosis) ([1]; 100 uM): 23.03% | G0/G1, % ([2]; 50 uM): 67.52% | S + G2 + M, % ([2]; 50 uM): 32.48% | G0/G1, % ([2]; 100 uM): 51.77% | S + G2 + M, % ([2]; 100 uM): 48.23% | concentration from which statistically significant cell growth inhibition started [3]: 5 µM

IC50 [3]: 30 µM
SMILES: CN1CC(=O)N2[C@H](c3cn(C)c4ccccc34)c3cc4c(cc3C[C@H]2C1=O)OCO4 [Analogue 4, (2S,8S)-6-methyl-2-(1-methyl-1H-indol-3-yl)-13,15-dioxa-3,6-diazatetracyclo-[8.7.0.0^3,8.0^12,16]heptadeca-1(10),11,16-triene-4,7-dione]
concentration from which statistically significant cell growth inhibition started [3]: 10 µM
